Reference: US11492361B2, “Compounds useful in HIV therapy” (GlaxoSmithKline Intellectual Property Development Limited, priority 2018, dated 2022)
Where a name gives a salt, the structure may show the parent alone.

test system: Jurkat HIV-luciferase clones; assay: Jurkat latency reversal assay; type: cell-based; conditions: Homo sapiens, Jurkat, 48 h
Experimental: Jurkat HIV-luciferase clones were maintained in RPMI medium 1640 (Gibco by Life Technologies) containing 10% (vol/vol) fetal bovine serum (SAFC/Sigma-Aldrich) and 25 units/mL penicillin, 25 units/mL streptomycin (Gibco by Life Technologies), and were split 1:4 every 3 to 4 days to maintain a cell density of ˜0.3 to 1 million cells/mL. The Jurkat clones were maintained with the addition of 500 nM EFV in the medium. Three Jurkat cell clones (C16, I15, and N6), each harboring one or two integrated HIV proviruses expressing the luciferase reporter gene, were added at equal amounts for a total of 5,000 cells per well to 384-well plates containing compound titrations. Dose-response testing was performed on compounds dissolved in dimethyl sulfoxide (DMSO, Fisher Scientific, Merelbeke, Belgium) dispensed in duplicate serial 3-fold, 14-point titrations using a D300e Digital Droplet Dispenser (Hewlett-Packard) to give final assay concentrations of 10 μM to 2.1 pM in 50 μL of medium at 0.5% DMSO (vol/vol) final concentration. Cells and compound were incubated at 37° C. for 48 hours, unless otherwise indicated, followed by the addition of 20 μL of Steady-Glo® Luciferase (Promega). Luminescence resulting from the induction of the virally expressed luciferase was measured using an EnVision 2102 Multilabel Plate Reader (Perkin Elmer). Dose-response relationships were analyzed with GraphPad PRISM 6 using a four-parameter logistic regression model to calculate the concentration of compound that gives half-maximal response (EC50) and the maximal percent activation compared to the vehicle control.

Row | Structure (SMILES) | EC50
1 | CN[C@@H](C)C(=S)N[C@H]1CCS[C@H]2CC(C)(C)[C@@H](C(=O)N[C@H](COCCCCOC[C@@H](NC(=O)[C@H]3N4C(=O)[C@@H](NC(=S)[C@H](C)NC)CCS[C@H]4CC3(C)C)c3ccccc3)c3ccccc3)N2C1=O [compound 37, (4S,4′S,7S,7′S,9aS,9a′S)-N,N′-((1S,1′S)-(butane-1,4-diylbis(oxy))bis(1-phenylethane-2,1-diyl))bis(8,8-dimethyl-4-((S)-2-(methylamino)propanethioamido)-5-oxooctahydropyrrolo[2,1-b][1,3]thiazepine-7-carboxamide) dihydrochloride] | 10.9 nM
2 | CN[C@@H](C)C(=O)N[C@H]1CCS[C@H]2CC(C)(C)[C@@H](C(=O)N[C@H](COCCOCCOC[C@@H](NC(=O)[C@H]3N4C(=O)[C@@H](NC(=O)[C@H](C)NC)CCS[C@H]4CC3(C)C)c3ccccc3)c3ccccc3)N2C1=O [compound 38, (4S,4′S,7S,7′S,9aS,9a′S)-N,N′-((1S,1′S)-((oxybis(ethane-2,1-diyl))bis(oxy))bis(1-phenylethane-2,1-diyl))bis(8,8-dimethyl-4-((S)-2-(methylamino)propanamido)-5-oxooctahydropyrrolo[2,1-b][1,3]thiazepine-7-carboxamide)] | 50.7 nM
3 | CN[C@@H](C)C(=S)N[C@H]1CCS[C@H]2CC(C)(C)[C@@H](C(=O)N[C@H](COCCOCCOC[C@@H](NC(=O)[C@H]3N4C(=O)[C@@H](NC(=S)[C@H](C)NC)CCS[C@H]4CC3(C)C)c3ccccc3)c3ccccc3)N2C1=O [compound 39, (4S,4′S,7S,7′S,9aS,9a′S)-N,N′-((1S,1′S)-((oxybis(ethane-2,1-diyl))bis(oxy))bis(1-phenylethane-2,1-diyl))bis(8,8-dimethyl-4-((S)-2-(methylamino)propanethioamido)-5-oxooctahydropyrrolo[2,1-b][1,3]thiazepine-7-carboxamide) dihydrochloride] | 51.8 nM
4 | CN[C@@H](C)C(=S)N[C@H]1CCS[C@H]2CC(C)(C)[C@@H](C(=O)N[C@H](COCCCCCCOC[C@@H](NC(=O)[C@H]3N4C(=O)[C@@H](NC(=S)[C@H](C)NC)CCS[C@H]4CC3(C)C)c3ccccc3)c3ccccc3)N2C1=O [compound 41, (4S,4′S,7S,7′S,9aS,9a′S)-N,N′-((1S,1′S)-(hexane-1,6-diylbis(oxy))bis(1-phenylethane-2,1-diyl))bis(8,8-dimethyl-4-((S)-2-(methylamino)propanethioamido)-5-oxooctahydropyrrolo[2,1-b][1,3]thiazepine-7-carboxamide) dihydrochloride] | 51.6 nM
5 | CN[C@@H](C)C(=S)N[C@H]1CCS[C@H]2CC(C)(C)[C@@H](C(=O)N[C@H](COCc3ccc(COC[C@@H](NC(=O)[C@H]4N5C(=O)[C@@H](NC(=S)[C@H](C)NC)CCS[C@H]5CC4(C)C)c4ccccc4)cc3)c3ccccc3)N2C1=O [compound 43, (4S,4′S,7S,7′S,9aS,9a′S)-N,N′-((1S,1′S)-((1,4-phenylenebis(methylene))bis(oxy))bis(1-phenylethane-2,1-diyl))bis(8,8-dimethyl-4-((S)-2-(methylamino)propanethioamido)-5-oxooctahydropyrrolo[2,1-b][1,3]thiazepine-7-carboxamide) dihydrochloride] | 43.4 nM
6 | CN[C@@H](C)C(=S)N[C@H]1CCS[C@H]2CC(C)(C)[C@@H](C(=O)N[C@H]3c4ccccc4C[C@H]3C(=O)NCc3ccc(CNC(=O)[C@@H]4Cc5ccccc5[C@@H]4NC(=O)[C@H]4N5C(=O)[C@@H](NC(=S)[C@H](C)NC)CCS[C@H]5CC4(C)C)cc3)N2C1=O [compound 44, (4S,7S,9aS)-N-[(1R,2R)-2-({[4-({[(1R,2R)-1-[(4S,7S,9aS)-8,8-dimethyl-4-[(2S)-2-(methylamino)propanethioamido]-5-oxo-octahydropyrrolo[2,1-b][1,3]thiazepine-7-amido]-2,3-dihydro-1H-inden-2-yl]formamido}methyl)phenyl]methyl}carbamoyl)-2,3-dihydro-1H-inden-1-yl]-8,8-dimethyl-4-[(2S)-2-(methylamino)propanethioamido]-5-oxo-octahydropyrrolo[2,1-b][1,3]thiazepine-7-carboxamide] | 20.4 nM
7 | CN[C@@H](C)C(=O)N[C@H]1CCS[C@H]2CC(C)(C)[C@@H](C(=O)N[C@H]3c4ccccc4C[C@H]3C(=O)NCc3ccc(CNC(=O)[C@@H]4Cc5ccccc5[C@@H]4NC(=O)[C@H]4N5C(=O)[C@@H](NC(=O)[C@H](C)NC)CCS[C@H]5CC4(C)C)cc3)N2C1=O [compound 45, (4S,7S,9aS)-N-[(1R,2R)-2-({[4-({[(1R,2R)-1-[(4S,7S,9aS)-8,8-dimethyl-4-[(2S)-2-(methylamino)propanamido]-5-oxo-octahydropyrrolo[2,1-b][1,3]thiazepine-7-amido]-2,3-dihydro-1H-inden-2-yl]formamido}methyl)phenyl]methyl}carbamoyl)-2,3-dihydro-1H-inden-1-yl]-8,8-dimethyl-4-[(2S)-2-(methylamino)propanamido]-5-oxo-octahydropyrrolo[2,1-b][1,3]thiazepine-7-carboxamide] | 183 nM
8 | CN[C@@H](C)C(=O)N[C@H]1CCS[C@H]2CC(C)(C)[C@@H](C(=O)N[C@H]3c4ccccc4C[C@H]3C(=O)N3CCN(C(=O)[C@@H]4Cc5ccccc5[C@@H]4NC(=O)[C@H]4N5C(=O)[C@@H](NC(=O)[C@H](C)NC)CCS[C@H]5CC4(C)C)CC3)N2C1=O [compound 46, (4S,7S,9aS)-N-[(1R,2R)-2-{4-[(1R,2R)-1-[(4S,7S,9aS)-8,8-dimethyl-4-[(2S)-2-(methylamino)propanamido]-5-oxo-octahydropyrrolo[2,1-b][1,3]thiazepine-7-amido]-2,3-dihydro-1H-indene-2-carbonyl]piperazine-1-carbonyl}-2,3-dihydro-1H-inden-1-yl]-8,8-dimethyl-4-[(2S)-2-(methylamino)propanamido]-5-oxo-octahydropyrrolo[2,1-b][1,3]thiazepine-7-carboxamide] | 127 nM
9 | CN[C@@H](C)C(=S)N[C@H]1CCS[C@H]2CC(C)(C)[C@@H](C(=O)N[C@H]3c4ccccc4C[C@H]3C(=O)N3CCN(C(=O)[C@@H]4Cc5ccccc5[C@@H]4NC(=O)[C@H]4N5C(=O)[C@@H](NC(=S)[C@H](C)NC)CCS[C@H]5CC4(C)C)CC3)N2C1=O [compound 47, (4S,7S,9aS)-N-[(1R,2R)-2-{4-[(1R,2R)-1-[(4S,7S,9aS)-8,8-dimethyl-4-[(2S)-2-(methylamino)propanethioamido]-5-oxo-octahydropyrrolo[2,1-b][1,3]thiazepine-7-amido]-2,3-dihydro-1H-indene-2-carbonyl]piperazine-1-carbonyl}-2,3-dihydro-1H-inden-1-yl]-8,8-dimethyl-4-[(2S)-2-(methylamino)propanethioamido]-5-oxo-octahydropyrrolo[2,1-b][1,3]thiazepine-7-carboxamide] | 1.2 nM
10 | CN[C@@H](C)C(=O)N[C@H]1CCS[C@H]2CC(C)(C)[C@@H](C(=O)N[C@H]3c4ccccc4C[C@H]3C(=O)NCC#CC#CCNC(=O)[C@@H]3Cc4ccccc4[C@@H]3NC(=O)[C@H]3N4C(=O)[C@@H](NC(=O)[C@H](C)NC)CCS[C@H]4CC3(C)C)N2C1=O [compound 49, (4S,7S,9aS)-N-[(1R,2R)-2-[(6-{[(1R,2R)-1-[(4S,7S,9aS)-8,8-dimethyl-4-[(2S)-2-(methylamino)propanamido]-5-oxo-octahydropyrrolo[2,1-b][1,3]thiazepine-7-amido]-2,3-dihydro-1H-inden-2-yl]formamido}hexa-2,4-diyn-1-yl)carbamoyl]-2,3-dihydro-1H-inden-1-yl]-8,8-dimethyl-4-[(2S)-2-(methylamino)propanamido]-5-oxo-octahydropyrrolo[2,1-b][1,3]thiazepine-7-carboxamide] | 466 nM
11 | CN[C@@H](C)C(=O)N[C@H]1CCS[C@H]2CC(C)(C)[C@@H](C(=O)N[C@H]3c4ccccc4C[C@H]3OCCCOCCCO[C@@H]3Cc4ccccc4[C@@H]3NC(=O)[C@H]3N4C(=O)[C@@H](NC(=O)[C@H](C)NC)CCS[C@H]4CC3(C)C)N2C1=O [compound 51, (4S,7S,9aS)-N-[(1S,2R)-2-[3-(3-{[(1S,2R)-1-[(4S,7S,9aS)-8,8-dimethyl-4-[(2S)-2-(methylamino)propanamido]-5-oxo-octahydropyrrolo[2,1-b][1,3]thiazepine-7-amido]-2,3-dihydro-1H-inden-2-yl]oxy}propoxy)propoxy]-2,3-dihydro-1H-inden-1-yl]-8,8-dimethyl-4-[(2S)-2-(methylamino)propanamido]-5-oxo-octahydropyrrolo[2,1-b][1,3]thiazepine-7-carboxamide] | 24 nM
12 | CN[C@@H](C)C(=S)N[C@H]1CCS[C@H]2CC(C)(C)[C@@H](C(=O)N[C@H](COCCCn3cc(COC[C@@H](NC(=O)[C@H]4N5C(=O)[C@@H](NC(=S)[C@H](C)NC)CCS[C@H]5CC4(C)C)c4ccccc4)nn3)c3ccccc3)N2C1=O [compound 53, (4S,7S,9aS)-N-[(1S)-2-[3-(4-{[(2S)-2-{[(4S,7S,9aS)-8,8-dimethyl-4-[(2S)-2-(methylamino)propanethioamido]-5-oxo-octahydropyrrolo[2,1-b][1,3]thiazepin-7-yl]formamido}-2-phenylethoxy]methyl}-1H-1,2,3-triazol-1-yl)propoxy]-1-phenylethyl]-8,8-dimethyl-4-[(2S)-2-(methylamino)propanethioamido]-5-oxo-octahydropyrrolo[2,1-b][1,3]thiazepine-7-carboxamide] | 178 nM
